Measurements as given in patent publication US12091425B2 (AMGEN INC., priority 2016, dated 2024).

Experiments:
[1] = test system: OPM-2 human multiple myeloma cell line; test: Cell Viability Assay (OPM-2 10 FBS); assay type: cell-based; conditions: OPM-2 cells, CellTiter-Glo
Procedure, shortened: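 IC50 from 4-parameter logistic fit of CellTiter-Glo luminescence. 3000 cells/well, 10% FBS medium, serial compound dilutions, 16 h, 37 °C/5% CO2; read 25 min post-reagent.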

[2] = target: T1, Mcl-1/Bim interaction, recombinant human Mcl-1 (171-327) (Homo sapiens, UniProt Q07820); test: Cell free Mcl-1: Bim Affinity Assay (Mcl-1 HTRF); assay type: binding
T1 construct: made in house
Procedure, shortened: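 Read-out is time-resolved FRET after overnight incubation, using a biotin-labelled peptide from human Bim (51-76) as the binding partner; IC50 was derived from competition curves.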

[3] = Homo sapiens, OPM-2, 16 h, 16 h
[4] = TR-FRET, 0.1 nM Mcl-1 (171-327), 0.05 nM biotin-Bim (51-76)
[5] = cell free Mcl-1:Bim TR-FRET, recombinant human Mcl-1 (171-327)

T1 sequence (Q07820 171-327): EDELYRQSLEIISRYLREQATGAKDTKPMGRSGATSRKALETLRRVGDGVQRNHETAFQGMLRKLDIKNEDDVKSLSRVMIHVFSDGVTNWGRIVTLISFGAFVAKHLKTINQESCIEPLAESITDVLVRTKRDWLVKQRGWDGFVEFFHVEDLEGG

| IC50 [1, 3] | IC50 [2, 4] | IC50 [2, 5] | SMILES | IC50 ([1]; 16 h) | also measured |
| --- | --- | --- | --- | --- | --- |
| 0.213 µM | 0.000382 µM |  | C[C@@H]1[C@@H](C)C/C=C/[C@H](OCC(=O)N2CC(F)(F)C2)[C@@H]2CC[C@H]2CN2C[C@@]3(CCCc4cc(Cl)ccc43)COc3ccc(cc32)C(=O)NS1(=O)=O [Example 308, (1S,3′R,6′R,7′S,8′E,11′S,12′R)-6-chloro-7′-(2-(3,3-difluoro-1-azetidinyl)-2-oxoethoxy)-11′,12′-dimethyl-3,4-dihydro-2H,15′H-spiro[naphthalene-1,22′-[20]oxa[13]thia[1,14]diazatetracyclo[14.7.2.0^3,6.0^19,24]pentacosa [8,16,18,24]tetraen]-15′-one 13′,13′-dioxide] |  |  |
| 0.817 µM | 0.00024 µM |  | C[C@@H]1[C@@H](C)C/C=C/[C@H](OCC(=O)N(C)CCN(C)C)[C@@H]2CC[C@H]2CN2C[C@@]3(CCCc4cc(Cl)ccc43)COc3ccc(cc32)C(=O)NS1(=O)=O [Example 300, 2-(((1S,3′R,6′R,7′S,8′E,11′S,12′R)-6-chloro-11′,12′-dimethyl-13′,13′-dioxido-15′-oxo-3,4-dihydro-2H-spiro[naphthalene-1,22′-[20]oxa[13]thia[1,14]diazatetracyclo[14.7.2.0^3,6.0^19,24]pentacosa [8,16,18,24]tetraen]-7′-yl)oxy)-N-(2-(dimethylamino)ethyl)-N-methylacetamide] |  |  |
| 24.7 µM |  | 0.0112 µM | CC[C@@H]1CC/C=C/[C@H](O)[C@@H]2CC[C@H]2CN2C[C@@]3(CCCc4cc(Cl)ccc43)COc3cc(Cl)c(cc32)C(=O)NS1(=O)=O [Example 657, (1S,3′R,6′R,7′S,8′E,12′R)-6,17′-dichloro-12′-ethyl-7′-hydroxy-3,4-dihydro-2H,15′H-spiro[naphthalene-1,22′-[20]oxa[13]thia[1,14]diazatetracyclo[14.7.2.0^3,6.0^19,24]pentacosa[8,16,18,24]tetraen]-15′-one 13′,13′-dioxide] |  |  |
| 0.404 µM | 0.00337 µM |  | C[C@@H]1[C@@H](C)C/C=C/[C@H](OCCNc2ccccn2)[C@@H]2CC[C@H]2CN2C[C@@]3(CCCc4cc(Cl)ccc43)COc3ccc(cc32)C(=O)NS1(=O)=O [Example 12, (1S,3′R,6′R,7′S,8′E,11′S,12′R)-6-chloro-11′,12′-dimethyl-7′-(2-(2-pyridinylamino)ethoxy)-3,4-dihydro-2H,15′H-spiro[naphthalene-1,22′-[20]oxa[13]thia[1,14]diazatetracyclo[14.7.2.0˜3,6˜.0˜19,24˜]pentacosa[8,16,18,24]tetraen]-15′-one 13′,13′-dioxide] |  |  |
|  | 0.000442 µM |  | C[C@@H]1[C@@H](C)S(=O)(=O)NC(=O)c2ccc3c(c2)N(C[C@@H]2CC[C@H]2[C@H](O)/C=C/[C@@H]1C)C[C@@]1(CCCc2cc(Cl)ccc21)CO3 (single isomer, unassigned) [Example 1068] |  | IC50 ([1]; 16 h incubation): 1.96 µM |
|  | 0.00305 µM |  | C[C@H]1CCCS(=O)(=O)NC(=O)c2ccc3c(c2)N(C[C@@H]2CC[C@H]2[C@@H](O)C1)C[C@@]1(CCCc2cc(Cl)ccc21)CO3 (single isomer, unassigned) [Example 242] | 0.467 µM |  |
|  | 0.00106 µM |  | CC[C@@H]1CC/C=C/[C@H](OCc2cc(C)nn2C)[C@@H]2CC[C@H]2CN2C[C@@]3(CCCc4cc(Cl)ccc43)COc3ccc(cc32)C(=O)NS1(=O)=O [Example 967, (1S,3′R,6′R,7′S,8′E,12′R)-6-chloro-7′-((1,3-dimethyl-1H-pyrazol-5-yl)methoxy)-12′-ethyl-3,4-dihydro-2H,15′H-spiro[naphthalene-1,22′-[20]oxa[13]thia[1,14]diazatetracyclo[14.7.2.0^3,6.0^19,24]pentacosa [8,16,18,24]tetraen]-15′-one 13′,13′-dioxide] |  | IC50 ([1]; Homo sapiens, OPM-2, 16 h, 16 h incubation): 0.461 µM |
| 13.6 µM |  | 0.0141 µM | CC[C@@H]1CC/C=C/[C@H](OC)[C@@H]2CC[C@H]2CN2C[C@@]3(CCCc4cc(Cl)ccc43)COc3cc(Cl)c(cc32)C(=O)NS1(=O)=O [Example 688, (1S,3′R,6′R,7′S,8′E,12′R)-6,17′-dichloro-12′-ethyl-7′-methoxy-3,4-dihydro-2H,15′H-spiro[naphthalene-1,22′-[20]oxa[13]thia[1,14]diazatetracyclo[14.7.2.0^3,6.0^19,24]pentacosa [8,16,18,24]tetraen]-15′-one 13′,13′-dioxide] |  |  |

Second part, the molecule before the results:

| SMILES | IC50 [1, 3] | IC50 [2, 4] | IC50 [2, 5] | IC50 ([1]; 16 h) | also measured |
| --- | --- | --- | --- | --- | --- |
| CO[C@H](C)C[C@@H]1CC/C=C/[C@H](OC)[C@@H]2CC[C@H]2CN2C[C@@]3(CCCc4cc(Cl)ccc43)COc3ccc(cc32)C(=O)NS1(=O)=O (single isomer, unassigned) [Example 549] |  |  | 0.000554 µM | 0.285 µM |  |
| C[C@@H]1[C@@H](C)/C=C/C[C@H](OCCN2CCOCC2)[C@@H]2CC[C@H]2CN2C[C@@]3(CCCc4cc(Cl)ccc43)COc3ccc(cc32)C(=O)NS1(=O)=O [Example 16, (1S,3′R,6′R,7′S,9′E,11′S,12′R)-6-chloro-11′,12′-dimethyl-7′-(2-(4-morpholinyl)ethoxy)-3,4-dihydro-2H,15′H-spiro[naphthalene-1,22′-[20]oxa[13]thia[1,14]diazatetracyclo[14.7.2.0^3,6.0^19,24]pentacosa [9,16,18,24]tetraen]-15′-one 13′,13′-dioxide] |  | 0.00221 µM |  |  | IC50 ([1]; Homo sapiens, 16 h): 3.58 µM |
| CO[C@H]1/C=C/C[C@H]2COCC[C@@H]2S(=O)(=O)NC(=O)c2ccc3c(c2)N(C[C@@H]2CC[C@H]21)C[C@@]1(CCCc2cc(Cl)ccc21)CO3 (single isomer, unassigned) [Example 321] |  | 0.00229 µM |  | 2.18 µM |  |
| COCCO[C@H]1/C=C/C[C@H]2C[C@@H]2S(=O)(=O)NC(=O)c2ccc3c(c2)N(C[C@@H]2CC[C@H]21)C[C@@]1(CCCc2cc(Cl)ccc21)CO3 (single isomer, unassigned) [Example 805] |  |  | 0.00106 µM | 0.719 µM |  |
| COCC[C@@H]1C[C@@H](C)/C=C/[C@H](OC)[C@@H]2CC[C@H]2CN2C[C@@]3(CCCc4cc(Cl)ccc43)COc3ccc(cc32)C(=O)NS1(=O)=O (single isomer, unassigned) [Example 484] |  |  | 0.000331 µM | 0.412 µM |  |
| CO[C@H]1C/C=C/[C@H](OCCN2CCOCC2)[C@@H]2CC[C@H]2CN2C[C@@]3(CCCc4cc(Cl)ccc43)COc3ccc(cc32)C(=O)NS(=O)(=O)[C@@H]1C[C@@H]1CCCO1 (single isomer, unassigned) [Example 645] |  |  | 0.000589 µM | 0.125 µM |  |
| O=C1NS(=O)(=O)CCC/C=C/[C@@H](OCc2nccs2)[C@@H]2CC[C@H]2CN2C[C@@]3(CCCc4cc(Cl)ccc43)COc3ccc1cc32 [Example 216, (1S,3′R,6′R,7′R,8′E)-6-chloro-7′-(1,3-thiazol-2-ylmethoxy)-3,4-dihydro-2H,15′H-spiro[naphthalene-1,22′-[20]oxa[13]thia[1,14]diazatetracyclo[14.7.2.0^3,6.0^19,24]pentacosa [8,16,18,24]tetraen]-15′-one 13′,13′-dioxide] | 26.2 µM | 0.00977 µM |  |  |  |
| O=C1NS(=O)(=O)[C@@H]2C[C@H](O)C[C@H]2C/C=C/[C@H](O)[C@@H]2CC[C@H]2CN2C[C@@]3(CCCc4cc(Cl)ccc43)COc3ccc1cc32 (single isomer, unassigned) [Example 335] |  | 0.000263 µM |  | 2.12 µM |  |
| CO[C@H]1C/C=C/[C@H](O)[C@@H]2CC[C@H]2CN2C[C@@]3(CCCc4cc(Cl)ccc43)COc3ccc(cc32)C(=O)NS(=O)(=O)[C@@H]1CC(C)C (single isomer, unassigned) [Example 643] | 0.151 µM |  | 0.000337 µM |  |  |
